The test concerns the target T1, LdtMt2-ebselen complex (Mycobacterium tuberculosis, UniProt I6Y9J2).
T1 construct: made in house; host or cells: E. coli
Kind of test: SPE-MS active-site selectivity assay with ebselen-preincubated LdtMt2. In kind it is binding. Particulars: inhibitor 100 µM, 24 h. The protocol:
LdtMt2 contains only a single cysteine residue (Cys354). However, as several identified electrophiles are able to react with residues other than cysteine,[30,31] it was assessed whether covalent modification of LdtMt2 by the inhibitors is related to reaction with Cys354. […] Apparently complete LdtMt2 modification by a single molecule of ebselen (+274 Da) was observed. Inhibitors 1–21 were then added to the ebselen derived LdtMt2 complex (Fig. S11 ^†).
Figure S11. Protein observed SPE-MS based active -site selectivity assay s. LdtMt2 (1 µM) was 153 preincubated with ebselen (10 µM, a known Ldt Mt2 inhibitor3, which reacts with the nucleophilic 154 Cys354) for 1 h in 50 mM Tris, pH 7.5 , prior to addition of inhibitors 1-15 (100 µM). Samples were 155 analysed after an additional 24 h incubation at room temperature. The spectrum in blue corresponds 156 to LdtMt2 reacted with ebselen. The spectrum in green corresponds to LdtMt2 reacted with the specified 157 inhibitor, following preincubation with ebselen. The spectrum in purple corresponds to LdtMt2 reacted 158 with the specified inhibitor. Deconvoluted spectra, obtained using the maximum entropy algorithm in 159 the MassHunter Workstation Qualitative Analysis B.07.00 program (Agilent), are shown. 160
(1 picture or pasted object on this page, not shown here)
T1 sequence (I6Y9J2 56-408, one chain of several): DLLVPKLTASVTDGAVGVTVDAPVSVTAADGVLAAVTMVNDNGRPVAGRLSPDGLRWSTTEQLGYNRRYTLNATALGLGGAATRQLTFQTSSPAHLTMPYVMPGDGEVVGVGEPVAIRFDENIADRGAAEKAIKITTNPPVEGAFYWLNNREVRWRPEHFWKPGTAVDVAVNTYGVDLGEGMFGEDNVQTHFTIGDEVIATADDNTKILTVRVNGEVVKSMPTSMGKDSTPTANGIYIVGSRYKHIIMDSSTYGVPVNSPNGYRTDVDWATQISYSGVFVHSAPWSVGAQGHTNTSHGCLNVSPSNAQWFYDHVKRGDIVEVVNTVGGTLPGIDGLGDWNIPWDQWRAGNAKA
In the case of `CC(C)(C)OC(=O)Nc1ccc(N2C(=O)C=CC2=O)cc1` [Compound 6], the “reaction with the LdtMt2-ebselen complex (Cys354 unavailable)” value is reported as “observed to react with the LdtMt2-ebselen complex”.
Under `CCOc1ccc(CN2C(=O)C(=O)c3cc(Br)cc(C)c32)cc1OC` [Compound 16] stands “observed to react with the LdtMt2-ebselen complex”.
Under `COc1ccc(CN2C(=O)C(=O)c3cc(Br)cc(C)c32)cc1OC` [Compound 17] stands “observed to react with the LdtMt2-ebselen complex”.

The values above are taken from publication PMC10321483 (Chemical Science, 2023).
